Entries after “also recorded” stand apart in the source; their conditions may differ.
Columns and labels:
CDK9 = molecular target: T1, CDK9 (Homo sapiens, UniProt P50750); test: Co-immunoprecipitation of CRIF1 with CDK9; type: binding
T1 construct: endogenous in cells
From the text: (§1) FIGS. 5A-5I. The Mitochondrial OX-PHOS Regulator, CRIF1, is a Novel Subunit of the Human CDK12 Kinase Complex. (A) Identification of CRIF1 as a near-stoichiometric subunit of the native CDK12 kinase complex. MudPIT analysis of CDK12 complexes from HEK293 cells that stably express HA-tagged full-length human CDK12. The HA-CDK12 complex was affinity-purified using anti-HA antibody and visualized by SDS-PAGE and silver-stain. (B) List of the identified proteins in the HA-CDK12 complex from (A). (C) Endogenous CRIF1 co-immunoprecipitates with native CDK12 in U2OS cell extracts. Shown is an immunoblot analysis of CRIF1, CCNK, and the chaperone proteins CDC37 and HSP90 in an anti-CDK12 immunoprecipitate. (D) CRIF1 is a specific subunit of the CDK12 complex. Native CRIF1 was immunoprecipitated from U2OS cells using an anti-CRIF1 antibody and analyzed by co-immunoprecipitation for association with various CDKs, as indicated. […] FLAG-CRIF1 proteins containing different C-terminal truncations were co-expressed with HA-CDK12 (aa 985-1490) and analyzed for binding by co-immunoprecipitation and immunoblot. […] Cell viability was analyzed after 72 hr. […] Expression of the mitochondrial MTCO-1 (COX1) protein was assessed using two different antisera. […] Each fraction (T; total, C:cytosolic, M:membrane/organelle, and N:nuclear) was analyzed by immunoblot using the indicated antibodies. […]

[1] = molecular target: T2, mTORC1/Raptor kinase complex (Homo sapiens, UniProt P42345); test: In vitro kinase assay: mTORC1 phosphorylation of recombinant 4E-BP1 (T37/46); type: biochemical; details: same reactions with CDK12 and mTORC1/Raptor
T2 construct: made in house
From the text: To enable priming of 4E-BP1 by mTORC1, these reactions contained both affinity-purified CDK12 and the mTORC1/Raptor kinase complexes. […] Consistent with a gain-of-function for CDK12 kinase activity in CRIF1 knockdown cells, enhanced binding of eIF4G to target mRNAs was observed (FIG. 6H, upper panel) that were identified previously by RIP-seq, with no effects on total mRNA levels (FIG. 6H, bottom panel).

[2] = molecular target: T3, affinity-purified CDK9/P-TEFb complex (Homo sapiens, UniProt P50750); test: In vitro kinase assay: CDK9/P-TEFb phosphorylation of GST-CTD; type: biochemical; details: affinity-purified FLAG-CDK9 kinase, immunoblot
T3 construct: FLAG; made in house
T3 sequence (P50750 whole entry): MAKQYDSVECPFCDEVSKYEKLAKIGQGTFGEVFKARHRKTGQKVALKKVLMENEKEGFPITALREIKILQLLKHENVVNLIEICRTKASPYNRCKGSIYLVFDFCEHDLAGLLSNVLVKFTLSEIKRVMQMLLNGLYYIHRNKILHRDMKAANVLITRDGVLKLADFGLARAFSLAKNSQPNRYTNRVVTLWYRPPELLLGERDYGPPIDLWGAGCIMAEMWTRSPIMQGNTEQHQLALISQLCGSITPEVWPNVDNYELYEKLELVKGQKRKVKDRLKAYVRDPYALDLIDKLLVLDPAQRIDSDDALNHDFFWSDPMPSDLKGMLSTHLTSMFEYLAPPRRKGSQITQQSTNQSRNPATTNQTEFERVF
T3 sequence (O60563 whole entry partner): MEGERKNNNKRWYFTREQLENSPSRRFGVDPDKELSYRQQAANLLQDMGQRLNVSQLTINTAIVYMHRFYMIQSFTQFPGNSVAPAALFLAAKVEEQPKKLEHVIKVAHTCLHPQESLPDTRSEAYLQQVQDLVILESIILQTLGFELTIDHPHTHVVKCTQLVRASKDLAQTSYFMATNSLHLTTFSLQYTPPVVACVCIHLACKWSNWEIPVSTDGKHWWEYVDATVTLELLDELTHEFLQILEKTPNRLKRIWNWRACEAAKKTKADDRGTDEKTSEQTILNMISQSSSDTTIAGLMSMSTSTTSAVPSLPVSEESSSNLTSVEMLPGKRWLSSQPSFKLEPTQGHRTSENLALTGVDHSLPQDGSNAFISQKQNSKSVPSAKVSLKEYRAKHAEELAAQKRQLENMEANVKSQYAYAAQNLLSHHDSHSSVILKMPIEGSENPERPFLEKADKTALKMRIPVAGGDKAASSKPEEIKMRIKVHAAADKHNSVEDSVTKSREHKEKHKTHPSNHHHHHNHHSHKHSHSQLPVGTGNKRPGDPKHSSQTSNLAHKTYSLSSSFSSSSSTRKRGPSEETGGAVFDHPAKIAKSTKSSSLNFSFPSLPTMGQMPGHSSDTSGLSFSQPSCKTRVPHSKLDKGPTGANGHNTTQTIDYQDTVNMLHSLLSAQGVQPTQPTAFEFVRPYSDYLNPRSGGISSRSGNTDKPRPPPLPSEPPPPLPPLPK
From the text: (A) CRIF1 and CDK12 have opposite effects on global RNAPII CTD-Ser2P levels in vivo. U2OS cells were transfected with indicated siRNAs for 48 hr, and RNAPII phosphorylation was monitored by immunoblot using phospho-specific CTD (Ser2P and Ser5P) antibodies. (B) Knockdown of CRIF1 up-regulates CHK1 expression and induction of p53. […] (C) Analysis of steady-state mRNA levels by qRT-PCR in extracts from U2OS cells exposed to control (CTL) or CRIF1-specific siRNAs, as indicated. (D) Depletion of CRIF1 enhances 4E-BP1 phosphorylation at S65 and T70 in vivo, as assessed by immunoblot using phospho-specific antibodies. (E) CRIF1 inhibits RNAPII CTD-Ser2 phosphorylation by CDK12 complexes in vitro. The human GST-CTD (52 repeat) protein was incubated in vitro with the affinity-purified HA-CDK12 kinase complex in the absence or presence of increasing levels of purified recombinant CRIF1, and analyzed by immunoblot with the indicated antisera. […] Analysis of GST-CTD Ser2 phosphorylation was carried out as described in (E), using the affinity-purified FLAG-CDK9 kinase. (G) CRIF1 inhibits 4E-BP1 phosphorylation by CDK12 in vitro. […] was monitored by immunoblot in the absence or in the presence of different levels of affinity-purified recombinant CRIF1. […]

CDK7 = molecular target: T4, CDK7 (Homo sapiens, UniProt P50613); test: Co-immunoprecipitation of CRIF1 with CDK7; type: binding
T4 construct: endogenous in cells
T4 sequence (P50613 whole entry): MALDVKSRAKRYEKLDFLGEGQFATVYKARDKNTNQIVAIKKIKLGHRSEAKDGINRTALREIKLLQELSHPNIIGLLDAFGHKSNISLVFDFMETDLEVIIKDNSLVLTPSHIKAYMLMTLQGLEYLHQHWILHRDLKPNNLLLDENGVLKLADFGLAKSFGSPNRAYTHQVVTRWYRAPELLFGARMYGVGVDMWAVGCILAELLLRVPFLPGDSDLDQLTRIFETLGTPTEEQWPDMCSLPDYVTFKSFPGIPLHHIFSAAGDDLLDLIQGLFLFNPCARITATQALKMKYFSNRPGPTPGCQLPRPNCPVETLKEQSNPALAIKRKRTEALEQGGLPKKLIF
From the text: as §1

T1 sequence (P50750 whole entry): as the sequence (P50750 whole entry) above

In the case of “Growth Arrest and DNA Damage-Inducible Proteins-Interacting Protein 1 [CRIF1]”, the “presence in / binding to CDK9 complexes” value (CDK9) is reported as “not present; also recorded: does not bind”, the “phosphorylation of the T37/46 sites of 4E-BP1 by mTORC1” value [1] is reported as “without affecting” and the “CDK9/P-TEFb phosphorylation of the GST-CTD substrate” value ([2]; listed as Recombinant CRIF1) is reported as “does not inhibit”. For the same substance, the “CDK9/P-TEFb phosphorylation of the GST-CTD substrate” value ([2]; listed as rCRIF) was “no effect” and the “presence in / binding to CDK7 complexes” value (CDK7) was “not present; also recorded: does not bind”.

Reference: patent US20170157212A1, “CDK MODULATORS AND METHODS FOR THE TREATMENT OF CANCER” (Salk Institute for Biological Studies, priority 2015, published 2017)
